Nine compounds from ChEMBL document CHEMBL1151897, “Limazepines A-F, pyrrolo[1,4]benzodiazepine Antibiotics from an Indonesian Micrococcus sp” (2009) can be followed below.

Activity calls are given as the source filed them. The calls are words filed in the database; no cut-off is given here.

For test [1], the system named is Staphylococcus aureus. In words: Antibacterial activity against Staphylococcus aureus at 1 ug/disk. To be noted: read-out: IZ. The test is classed as functional.
Test [2] relates to Pseudomonas aeruginosa. Put plainly: Antibacterial activity against Pseudomonas aeruginosa at 1 ug/disk. The test is classed as functional. The conditions noted are these: read-out: IZ.
The test system of another test is Bacillus subtilis. In words: Antibacterial activity against Bacillus subtilis. The format is functional, organism-based.
The subject of a further test is Candida albicans. Put plainly: Antifungal activity against Candida albicans. The format is functional, organism-based.
For another test, the system named is Rhizomucor miehei. Put plainly: Antifungal activity against Mucor miehei. The format is functional, organism-based.
Test [3] relates to Escherichia coli. In words: Antibacterial activity against Escherichia coli at 1 ug/disk. The format is functional. To be noted: read-out: IZ.
In test [4] the test system is Staphylococcus aureus. Put plainly: Antibacterial activity against Staphylococcus aureus at 24 ug/disk. The test is classed as functional, organism-based.
Test [5] deals with Pseudomonas aeruginosa. Put plainly: Antibacterial activity against Pseudomonas aeruginosa at 24 ug/disk. The format is functional, organism-based.
The test system of test [6] is Escherichia coli. In words: Antibacterial activity against Escherichia coli at 24 ug/disk. The test is classed as functional, organism-based.
Test [7] has as its system Pseudomonas aeruginosa. In words: Antibacterial activity against Pseudomonas aeruginosa at 30 ug/disk. The test is classed as functional.
In test [8] the test system is Escherichia coli. In words: Antibacterial activity against Escherichia coli at 30 ug/disk. The test is classed as functional, organism-based.
The test system of test [9] is Staphylococcus aureus. Put plainly: Antibacterial activity against Staphylococcus aureus at 30 ug/disk. The format is functional. To be noted: for zone of inhibition at 30 µg/disc: read-out: IZ.
Test [10] concerns Pseudomonas aeruginosa. In words: Antibacterial activity against Pseudomonas aeruginosa at 40 ug/disk. The test is classed as functional, organism-based.
In test [11] the test system is Escherichia coli. Put plainly: Antibacterial activity against Escherichia coli at 40 ug/disk. The test is classed as functional. To be noted: for zone of inhibition at 40 µg/disc: read-out: IZ.
Test [12] relates to Staphylococcus aureus. In words: Antibacterial activity against Staphylococcus aureus at 40 ug/disk. To be noted: for zone of inhibition at 40 µg/disc: read-out: IZ. The test is classed as functional.

For the compound `CC1(C)S[C@@H]2[C@H](NC(=O)[C@H](N)c3ccccc3)C(=O)N2[C@H]1C(=O)O` [AMPICILLIN], the zone of inhibition at 1 µg/disc in the test on Staphylococcus aureus [1] turned out to be 13 mm; in the test with Pseudomonas aeruginosa [2], 30 mm; in the test on Escherichia coli [3], 25 mm. Also, the outcome with Bacillus subtilis, in the test on Candida albicans and with Rhizomucor miehei was inactive.

As for `CCc1c[nH]c(C=O)c1`, the “inhibition zone (IZ)” value with Staphylococcus aureus [4], in the test with Pseudomonas aeruginosa [5] and in the test on Escherichia coli [6] was “inactive” throughout. The outcome with Bacillus subtilis, in the test with Candida albicans and in the test on Rhizomucor miehei was inactive.

For `COC(=O)c1ccc(OC)c(O)c1N`, the “inhibition zone (IZ)” value in the test on Pseudomonas aeruginosa [7] and with Escherichia coli [8] was “inactive” throughout. Moreover, the outcome with Bacillus subtilis, in the test on Candida albicans and in the test on Rhizomucor miehei was inactive. Further, the zone of inhibition at 30 µg/disc with Staphylococcus aureus [9] came out at 11 mm.

For the compound `C/C=C1\C[C@H]2C=Nc3c(ccc(OC)c3O)C(=O)N2C1` [LIMAZEPINE E], the “inhibition zone (IZ)” value in the test on Pseudomonas aeruginosa [10] was “inactive”. In addition, the result in the test with Bacillus subtilis, in the test on Candida albicans and in the test with Rhizomucor miehei was inactive. In addition, the zone of inhibition at 40 µg/disc in the test on Escherichia coli [11] came out at 10 mm; in the test with Staphylococcus aureus [12], 12 mm.

For the compound `C/C=C1\C[C@H]2C=Nc3ccccc3C(=O)N2C1`, the “inhibition zone (IZ)” value with Pseudomonas aeruginosa [7], in the test with Escherichia coli [8] and in the test on Staphylococcus aureus [9] was “inactive” throughout. In addition, the result in the test on Bacillus subtilis, with Candida albicans and in the test with Rhizomucor miehei was inactive.

Regarding `CCC1=CN2C(=O)c3ccc(OC)c(O)c3N=C[C@@H]2C1` [LIMAZEPINE C], in the test with Pseudomonas aeruginosa [10], the “inhibition zone (IZ)” value is “inactive”. In addition, the result in the test on Bacillus subtilis, with Candida albicans and with Rhizomucor miehei was inactive. The zone of inhibition at 40 µg/disc in the test with Escherichia coli [11] was found to be 10 mm; in the test on Staphylococcus aureus [12] it was 18 mm.

Take `CCc1cc2cnc3c(O)c(OC)ccc3c(=O)n2c1` [LIMAZEPINE D]: the zone of inhibition at 30 µg/disc came to 9 mm in the test with Pseudomonas aeruginosa [7] (read-out: IZ) and 7 mm in the test on Staphylococcus aureus [9]. The outcome with Bacillus subtilis, with Candida albicans and in the test on Rhizomucor miehei was inactive. In addition, the “inhibition zone (IZ)” value in the test with Escherichia coli [8] is “inactive”.

As for `CCC1=CN2C(=O)c3ccc(OC)c(O)c3NC(=O)[C@@H]2C1`, the “inhibition zone (IZ)” value in the test with Pseudomonas aeruginosa [10], in the test on Escherichia coli [11] and in the test with Staphylococcus aureus [12] was “inactive” in each case. Further, the outcome in the test on Bacillus subtilis, in the test with Candida albicans and with Rhizomucor miehei was inactive.

For `C/C=C1\C[C@H]2[C@@H](O)Nc3ccccc3C(=O)N2C1`, the “inhibition zone (IZ)” value with Pseudomonas aeruginosa [7], with Escherichia coli [8] and in the test on Staphylococcus aureus [9] was “inactive” throughout. Besides, the outcome in the test with Bacillus subtilis, in the test on Candida albicans and in the test on Rhizomucor miehei was inactive.
